Measurements taken from patent US20090062294A1, “HETEROARYL-SUBSTITUTED UREA MODULATORS OF FATTY ACID AMIDE HYDROLASE” (priority 2007, published 2009).

Legend:
rat FAAH = biological target: T1, rat FAAH (Rattus norvegicus, UniProt P97612); assay: Assay Method 2: FAAH assay, 3H-anandamide hydrolysis in homogenate of SK-N-MC cells transfected with rat FAAH; type: biochemical; settings: average of results, > = solubility limit or highest concentration tested
T1 sequence (P97612 1-579): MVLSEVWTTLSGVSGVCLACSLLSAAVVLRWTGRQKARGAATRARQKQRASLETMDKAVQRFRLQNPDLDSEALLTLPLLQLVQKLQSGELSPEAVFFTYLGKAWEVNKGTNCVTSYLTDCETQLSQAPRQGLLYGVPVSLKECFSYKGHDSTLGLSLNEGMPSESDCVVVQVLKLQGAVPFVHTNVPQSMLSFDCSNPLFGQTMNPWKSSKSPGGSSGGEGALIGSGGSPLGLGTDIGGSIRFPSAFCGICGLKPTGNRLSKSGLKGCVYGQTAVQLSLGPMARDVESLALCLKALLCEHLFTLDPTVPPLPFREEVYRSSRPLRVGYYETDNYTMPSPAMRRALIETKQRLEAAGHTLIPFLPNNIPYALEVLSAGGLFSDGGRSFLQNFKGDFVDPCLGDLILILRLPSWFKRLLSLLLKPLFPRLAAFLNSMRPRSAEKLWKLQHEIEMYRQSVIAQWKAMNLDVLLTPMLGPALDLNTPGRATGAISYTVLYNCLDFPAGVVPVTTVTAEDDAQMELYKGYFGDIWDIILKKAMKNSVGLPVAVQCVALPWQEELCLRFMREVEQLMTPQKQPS
Procedure, shortened: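 Homogenate of SK-N-MC cells stably transfected with rat FAAH cDNA (G418-selected clones) in pH 9 Tris/EDTA/glycerol/Triton buffer. Incubated with compound and 80 nM final [3H]-anandamide for 1 h at rt. Released [3H]-ethanolamine separated from substrate on activated charcoal filters and counted by scintillation.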

FAAH = biological target: T2, FAAH (Homo sapiens, UniProt O00519); assay: Assay Method 1: FAAH assay, 3H-anandamide hydrolysis in homogenate of T84 cells or SK-N-MC cells transfected with human FAAH; type: biochemical; settings: average of results, > = solubility limit or highest concentration tested
T2 sequence (O00519 1-579): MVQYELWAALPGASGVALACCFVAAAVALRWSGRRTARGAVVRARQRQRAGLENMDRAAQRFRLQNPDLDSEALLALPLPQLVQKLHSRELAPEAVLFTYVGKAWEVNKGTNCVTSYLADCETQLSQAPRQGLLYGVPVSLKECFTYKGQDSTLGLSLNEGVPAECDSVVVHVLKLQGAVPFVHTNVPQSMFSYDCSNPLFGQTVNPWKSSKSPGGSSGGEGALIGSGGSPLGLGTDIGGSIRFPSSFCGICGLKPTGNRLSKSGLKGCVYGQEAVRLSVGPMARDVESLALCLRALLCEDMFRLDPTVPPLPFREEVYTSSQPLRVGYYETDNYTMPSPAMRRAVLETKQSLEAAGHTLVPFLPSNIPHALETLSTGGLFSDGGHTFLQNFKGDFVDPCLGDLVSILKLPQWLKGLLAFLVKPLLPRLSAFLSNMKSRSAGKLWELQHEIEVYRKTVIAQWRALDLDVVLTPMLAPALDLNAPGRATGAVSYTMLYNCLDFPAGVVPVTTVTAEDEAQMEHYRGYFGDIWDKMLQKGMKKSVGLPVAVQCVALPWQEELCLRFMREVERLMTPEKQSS
Procedure, shortened: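 Homogenates of T84 cells or of SK-N-MC cells stably transfected with human FAAH (G418-selected) were prepared in pH 9 Tris/EDTA/glycerol/Triton buffer. They were incubated with compound and 80 nM final ^3H-anandamide for 1 h at rt. Released ^3H-ethanolamine was separated on activated charcoal and counted by scintillation.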

| IC50 (rat FAAH) [nM] | IC50 (FAAH) [nM] | Structure (SMILES) |
| --- | --- | --- |
| 4 | 6 | O=C(Nc1noc2ccccc12)N1CCN(Cc2cccc(Oc3ccc(C(F)(F)F)cc3)c2)CC1 [Example 109, N-1,2-Benzisoxazol-3-yl-4-{3-[4-(trifluoromethyl)phenoxy]benzyl}-piperazine-1-carboxamide] |
| 15 | 19 | O=C(Nc1noc2cc(F)ccc12)N1CCN(Cc2cccc(Oc3ccc(Cl)cc3)c2)CC1 [Example 245, 4-[3-(4-Chloro-phenoxy)-benzyl]-piperazine-1-carboxylic acid (6-fluoro-benzo[d]isoxazol-3-yl)-amide] |
